Patent US4230719A, “Novel 2-[4-(3-methyl-2-thienyl)phenyl]propionic acid and pharmaceutically acceptable salt thereof and method for treating symptoms of inflammation and pain” (Toyama Chemical Co., Ltd., priority 1977, dated 1980)
pIC50: −log10 of the molar value. Like-named read-outs stand apart in the source and are kept apart here.

What was measured:
[1] = tested on: gastric mucosa and intestine; test: Test for ulcerogenic action (i), single dose, fasted rats; assay type: in vivo; settings: for Gastric glandular score: 18 hours, score 0 (no lesion) to 4 (many large ulcers or perforation)
Description: (§1) (4) Test for ulcerogenic action
(§2) After 18 hours, the rats were killed by suffocation with chloroform and their stomachs were excised. After having been filled with 5 ml of 1% formalin to fix the gastric mucosa, each stomach was incised along the greater curvature to inspect grossly the extent of injury of the gastric mucosa. The extent of injury was scored as follows: 0, no lesion; 1, petechia or erosion; 2, 1-5 small ulcers; 3, many small ulcers; 4, many large ulcers or perforation. The intestinal injury was evaluated based on the incidence of erosion.

[2] = as above; assay type: in vivo; settings: rat, in vivo, po
Description: as §1, §2

[3] = tested on: pain threshold (brewer's yeast, hind paw); test: Analgesic activity, Randall-Selitto method in rat; assay type: in vivo, rat (Wistar strain, male); settings: for Inhibition: 100% = pain threshold raised by 150 g
Description: (ii) Randall-Selitto method in rat
After one hour, the test compound was orally administered. One hour thereafter, the pain threshold value was measured four times at a time interval of one hour. The mean value of four values obtained was taken as the pain threshold value of each group of rats. The activity of the drug was assumed to be 100% when the pain threshold value was raised by 150 g.

Vascular permeability [4] = test: Vascular permeability in rat (Whittle's method); assay type: in vivo, rat (Wistar strain, male)
Description: (ii) Vascular permeability in rat (Whittle's method)
The test compound was orally administered to each Wistar strain male rat (weighing about 150 g) which had been fasted overnight. After 55 minutes, 0.5 ml of a 0.5% Evans Blue solution was intravenously injected. Five minutes thereafter, 0.2 ml/100 g of a 3%(V/V) acetic acid solution was intraperitoneally injected. After 60 minutes from the injection of the acetic acid solution, the rats were killed by suffocation with chloroform. After immediate laparotomy, the dye leaked into the peritoneal cavity was washed out with physiological saline. The washings were made up with the saline to 30 ml and the absorbance at 640 mμ was measured to examine the effect of the test compounds by comparing the amounts of leaked dye per rat with one another.

in vivo = settings: rat, po
[5] = tested on: gastric mucosa and intestine; test: Test for ulcerogenic action (ii), three doses, rats on normal meal; assay type: in vivo, rat (Donryu strain, male); parameters: scale not given here
Description: (ii) In the same manner as in (i), the test compound was orally administered to each Donryu strain male rat (weighing about 180 g; 10 rats per group) which had received normal meal. The second dose was administered after 8 hours and the third dose after 16 hours from the second dose. Five hours after the last administration, the rats were treated in the same manner as in (i). The gastric mucosa injury and the intestinal injury were scored in the same manner as in (i).

Vascular permeability [6] = test: Vascular permeability in mice (Whittle's method); assay type: in vivo, mouse (ddY strain, male); settings: for Inhibition: dye leakage
Description: (i) Vascular permeability in mice (Whittle's method)
The test compound was orally administered to each ddY strain male mouse (weighing each about 20 g). After 20 minutes, 0.1 ml/10 g of a 4%(Wt/V) solution of Pontamine Sky Blue in physiological saline was intravenously injected and 10 minutes thereafter 0.1 ml/10 g of a 0.7%(V/V) solution of acetic acid in physiological saline was injected intraperitoneally. After 30 minutes, the mice were killed by suffocation with chloroform. After immediate laparotomy, the dye leaked into the peritoneal cavity was washed out with distilled water. The washings were made up with water to 30 ml and the absorbance at 620 mμ was measured. The amount of leaked dye per 20 g of mouse weight was compared.

[7] = tested on: Carrageenin-induced edema; test: Carrageenin-induced edema; assay type: in vivo, rat (Donryu strain, male); settings: Rattus norvegicus, po, mean in 5 hours, read-out: Inhibitory percent of swelling
Description: (iii) Carrageenin-induced edema
Each of the 6 Donryu strain male rats per group (each weighing about 140 g), which had been fasted overnight, was orally loaded with 4 ml of water and, after 30 minutes, the test compound was orally administered thereto. Thirty minutes thereafter, a 1%(Wt/V) solution of carrageenin in physiological saline was subcutaneously injected into the subplantar region of the left hind paw. At a time interval of one hour, starting from the end of the first hour till the end of the fifth hour after injection of carrageenin, the paw volume was measured by means of a manometer and pressure transducer. By comparison with the percent increase in swelling of the control group of rats to which a 0.5%(V/V) solution of Tween 80 had been administered, the mean inhibitory percent in 5 hours of swelling was calculated by the following equation: [formula]

Adjuvant arthritis = test: Adjuvant arthritis; assay type: in vivo, rat (Sprague-Dawley strain, male); settings: 1 mg/kg p.o./day, mean during one week
Description: A suspension containing 6 mg/ml of killed and dried Mycobacterium butyricum in liquid paraffin was subcutaneously injected into the subplantar region of the left hind paw of Sprague-Dawley strain male rats (weighing 180 to 200 g) in a proportion of 0.1 ml/rat. After 14 days, the rats having inflammatory paws of similar volumes were selected and the test compound was orally administered to the rats repeatedly at the rate shown in Table 4 during one week and the mean inhibitory percent of swelling during one week was determined.

[8] = tested on: phenylbenzoquinone writhing; test: Analgesic activity, phenylbenzoquinone method in mouse; assay type: in vivo, mouse (ddY strain, male); settings: for Frequency of writhing, mean ± S.E.: during 10 minutes
Description: (i) Phenylbenzoquinone method in mouse
The test compound was orally administered to each ddY strain male mouse (weighing 22±2 g; 8 mice per group). […] The frequency of writhing during 10 minutes from 5-minutes after the injection of phenylbenzoquinone was measured and compared with that of a control group to which a 0.5% Tween 80 solution was administered. The percent inhibition was calculated by the following equation: [formula]

[9] = tested on: Phenol Red (PSP) excretion; test: Uricosuric action (a), inhibition of Phenol Red (PSP) excretion; assay type: in vivo, rabbit (male)
Description: (a) The action was examined by the method of B. B. Brodie et al. who reported that the inhibitory action on Phenol Red (PSP) excretion correlates with the uricosuric action [Proc. Soc. Exp. Biol. Med., 86, 884 (1954)]. To a male rabbit weighing 2 to 3 kg was intraperitoneally administered the test compound. After 30 minutes, 75 mg/kg of a Phenol Red suspension was injected into the pinna vein of the rabbit and 30 minutes thereafter a blood sample was drawn from the pinna vein. The blood sample was centrifuged and the serum was diluted with physiological saline. The diluted serum was treated with 0.1 N NaOH to develop the color. The concentration of Phenol Red in the serum was determined from the absorbance at 560 mμ.

[10] = tested on: fever (Mycobacterium butyricum); test: Antipyretic action; assay type: in vivo, rat (Wistar strain, female)
Description: A suspension (0.6 mg/0.1 ml) of killed and dried Mycobacterium butyricum in liquid paraffin was subcutaneously injected in an amount of 0.1 ml into the subplantar region of the hind paw of each Wistar strain female rat weighing about 180 g. After 14 hours, the fevered rats were divided into groups, and each test compound was orally administered to each group to examine the antipyretic effect.

uric acid in plasma = test: Uricosuric action (b), uric acid in plasma of uric acid loaded rats; assay type: in vivo, rat (Wistar strain, male)
Description: (b) After fasting overnight, the test compound was orally administered to a Wistar strain male rat weighing 150 to 200 g. After one hour, the rat was loaded with 100 mg/kg of uric acid by intraperitoneal administration. Thirty minutes thereafter, a blood sample was drawn from the cervical vein and the uric acid concentration in the plasma was determined by use of a kit (Uric acid test Wako) for the uric acid determination.

Glomerulonephritis = test: Action on glomerulonephritis in rats; assay type: in vivo, rat (Wistar strain, male); settings: 25 mg/kg p.o./day
Source text: (ii) Action on glomerulonephritis in rats
Glomerulonephritis was induced in Wistar strain male rats (each weighing 180 to 200 g) by use of an anti-rat's kidney rabbit serum obtained from the serum of a rabbit sensitized with a homogenate of rat's kidney cortice. To the rat producing stable proteinuria was orally administered the test compound repeatedly at the rate shown in Table 12 for 2 weeks, and the inhibition of uric protein was examined.

[11] = tested on: prostaglandin biosynthesis (homogenate of guinea pig's lung); test: Inhibitory action on prostaglandin biosynthesis (TBA method); settings: read-out: ID50
Source text: Using a homogenate of guinea pig's lung as an enzyme preparation for the biosynthesis of prostaglandin, the inhibitory activity of the test compound against the prostaglandin biosynthesis was examined by the TBA (thiobarbituric acid) method.

[12] = tested on: threshold value of pain due to pressure stimuli (tail); settings: for Analgesic effect: 100% = threshold raised by 160 g

For `CC(C(=O)O)c1ccc(-c2cccs2)c(Cl)c1` (centres unmarked) [Compound C3], the Intestine erosion incidence ([1]; 10 mg/kg p.o.) was 0/7, the Gastric glandular score ([1]; 10 mg/kg p.o.) was 1.18 ± 0.30 and the Intestine erosion incidence ([1]; 30 mg/kg p.o.) was 0/7. The Gastric glandular score ([1]; 30 mg/kg p.o.) was 1.96 ± 0.42, the Intestine erosion incidence ([1]; 100 mg/kg p.o.) was 4/7 and the Gastric glandular score ([1]; 100 mg/kg p.o.) was 3.39 ± 0.30. The TD50 at 18 h [2] was 27 mg/kg, the Inhibition ([3]; 1 mg/kg p.o.) was 14.4% and the Inhibition ([3]; 5 mg/kg p.o.) was 32.5%. It also gave an Inhibition ([3]; 25 mg/kg p.o.) of 56.6%, an ED50 ([3]; po, rat, read-out: ED50) of 16.5 mg/kg and an Inhibition (Vascular permeability [4]; 1 mg/kg p.o.) of 22.2%. The Inhibition (Vascular permeability [4]; 5 mg/kg p.o.) was 44.6%, the ED30 (Vascular permeability [4]; po, rat, read-out: ED30) was 1.7 mg/kg and the LD50 (in vivo) was 270 mg/kg. The “Score, intestine, mean ± S.E.” value ([5]; 5 mg/kg × 3 p.o.) was 0.83 ± 0.21, the “Score, stomach, mean ± S.E.” value ([5]; 5 mg/kg × 3 p.o.) was 1.67 ± 0.31 and the “Score, intestine, mean ± S.E.” value ([5]; 15 mg/kg × 3 p.o.) was 1.50 ± 0.38. The “Score, stomach, mean ± S.E.” value ([5]; 15 mg/kg × 3 p.o.) was 2.36 ± 0.14, the “Dye leakage (P.S.B.) mean ± S.E.” value (Vascular permeability [6]; 5 mg/kg p.o.) was 289.3 ± 21.4 μg/20g and the “Dye leakage (P.S.B.) mean ± S.E.” value (Vascular permeability [6]; 10 mg/kg p.o.) was 254.2 ± 10.3 μg/20g. For the same compound, the “Dye leakage (P.S.B.) mean ± S.E.” value (Vascular permeability [6]; 20 mg/kg p.o.) was 226.9 ± 15.3 μg/20g, the Inhibition (Vascular permeability [6]; 5 mg/kg p.o.) was 9.8% and the Inhibition (Vascular permeability [6]; 10 mg/kg p.o.) was 20.8%. The Inhibition (Vascular permeability [6]; 20 mg/kg p.o.) was 29.3%, the ED30 (Vascular permeability [6]; po, mouse, read-out: ED30) was 20.5 mg/kg and the inhibition in vivo at 1 mg/kg ([7]; 1 mg/kg p.o.) was 15.2%. The inhibition in vivo at 5 mg/kg ([7]; 5 mg/kg p.o.) was 42%, the “Inhibitory percent of swelling” value (Adjuvant arthritis) was 8.1% and the “Frequency of writhing, mean ± S.E.” value ([8]; 10 mg/kg p.o.) was 23.1 ± 3.5. For the same compound, the “Frequency of writhing, mean ± S.E.” value ([8]; 20 mg/kg p.o.) was 19.4 ± 3.7, the “Frequency of writhing, mean ± S.E.” value ([8]; 40 mg/kg p.o.) was 12.4 ± 3.0 and the inhibition in vivo at 10 mg/kg ([8]; Mus musculus, po, 10 min, writhing, 10 mg/kg p.o., read-out: Inhibition) was 2.1%. For the same compound, the inhibition in vivo at 20 mg/kg ([8]; Mus musculus, po, 10 min, writhing, 20 mg/kg p.o., read-out: Inhibition) was 17.8%, the inhibition in vivo at 40 mg/kg ([8]; Mus musculus, po, 10 min, writhing, 40 mg/kg p.o.) was 47.5% and the ED50 ([8]; po, mouse, read-out: ED50) was 50 mg/kg.
With `CCCCC1C(=O)N(c2ccccc2)N(c2ccccc2)C1=O` [Phenylbutazone] the “Concentration of PSP in serum, mean ± S.E.” value ([9]; 50 mg/kg i.p.) was 174.0 ± 5.0 µg/mL, the “Concentration of PSP in serum, mean ± S.E.” value ([9]; 100 mg/kg i.p.) was 238.0 ± 15.9 µg/mL and the “Mean decrease in temp.” value ([10]; 5 mg/kg p.o.) was 0.27 °C. The “Mean decrease in temp.” value ([10]; 20 mg/kg p.o.) was 1.10 °C, the “Mean decrease in temp.” value ([10]; 100 mg/kg p.o.) was 1.35 °C and the ED1.0 ([10]; Rattus norvegicus, po) was 26.5 mg/kg. For the same compound, the “Uric acid concentration in plasma, mean ± S.E.” value (uric acid in plasma; 50 mg/kg p.o.) was 5.3 ± 0.37 mg/dL, the “Uric acid concentration in plasma, mean ± S.E.” value (uric acid in plasma; 100 mg/kg p.o.) was 3.3 ± 0.25 mg/dL and the “Inhibition of uric protein” value (Glomerulonephritis; 7th day) was 1.0%. The “Inhibition of uric protein” value (Glomerulonephritis; 14th day) was 11.2%, the pIC50 [11] was 4.17 and the Analgesic effect ([12]; 25 mg/kg p.o.) was 26%. It also gave an Analgesic effect ([12]; 100 mg/kg p.o.) of 70% and an ED50 ([12]; Mus musculus, po) of 53 mg/kg.
